Experimental data as given in the NIST ThermoML archive (doi:10.1021/je300775u).
Numbers after ± are expanded uncertainties.

Assay: xn = mol fraction of the nth substance listed
Conditions: 101 kPa, Liquid; for speed of sound: Pulse-echo method; for mass density: Vibrating tube method

BrCBr [dibromomethane] + CCCCCCC
Conditions | mass density, 293.15 K [kg/m3] | mass density, 298.15 K [kg/m3] | speed of sound, 293.15 K [m/s] | speed of sound, 298.15 K [m/s] | speed of sound, 303.15 K [m/s]
x1 = 0.0504 | 727.59 ± 0.24 | 723.09 ± 0.24 | 1128.1 ± 0.9 | 1107.3 ± 0.9 | 1086.4 ± 0.9
x1 = 0.1039 | 776.8 ± 0.24 | 772.01 ± 0.24 | 1104.9 ± 0.9 | 1084.7 ± 0.9 | 1064.4 ± 0.9
x1 = 0.1552 | 826.84 ± 0.25 | 821.77 ± 0.25 | 1084 ± 0.9 | 1064.4 ± 0.9 | 1044.8 ± 0.9
x1 = 0.2037 | 877.02 ± 0.25 | 871.66 ± 0.25 | 1065.7 ± 0.9 | 1046.5 ± 0.9 | 1027.3 ± 0.9
x1 = 0.2532 | 931.38 ± 0.26 | 925.72 ± 0.26 | 1048.3 ± 1 | 1029.7 ± 1 | 1010.9 ± 0.9
x1 = 0.3019 | 988.09 ± 0.27 | 982.12 ± 0.27 | 1032.4 ± 1 | 1014.2 ± 1 | 995.8 ± 1
x1 = 0.354 | 1052.94 ± 0.3 | 1046.61 ± 0.3 | 1016.7 ± 1 | 999.1 ± 1 | 981.2 ± 1
x1 = 0.4022 | 1117.05 ± 0.34 | 1110.37 ± 0.34 | 1003.5 ± 1 | 986.1 ± 1 | 968.8 ± 1
x1 = 0.4552 | 1192.54 ± 0.39 | 1185.46 ± 0.38 | 990.1 ± 1 | 973.2 ± 1 | 956.4 ± 1
x1 = 0.4962 | 1254.87 ± 0.44 | 1247.47 ± 0.44 | 980.6 ± 1 | 964.2 ± 1 | 947.8 ± 1
x1 = 0.5532 | 1347.9 ± 0.51 | 1339.98 ± 0.51 | 969.3 ± 1 | 953.3 ± 1 | 937.4 ± 1
x1 = 0.6119 | 1452.49 ± 0.6 | 1444.09 ± 0.6 | 959.2 ± 1.1 | 943.8 ± 1.1 | 928.3 ± 1.1
x1 = 0.6543 | 1534.18 ± 0.69 | 1525.37 ± 0.68 | 953.4 ± 1.1 | 938.2 ± 1.1 | 923.1 ± 1.1
x1 = 0.7032 | 1635.75 ± 0.79 | 1626.46 ± 0.78 | 948 ± 1.1 | 933.3 ± 1.1 | 918.6 ± 1.1
x1 = 0.7514 | 1744.18 ± 0.91 | 1734.39 ± 0.9 | 944.6 ± 1.1 | 930.2 ± 1.1 | 915.8 ± 1.1
x1 = 0.8024 | 1869.64 ± 1.1 | 1859.25 ± 1.1 | 942.9 ± 1.1 | 928.9 ± 1.1 | 915 ± 1.1
x1 = 0.8518 | 2003.09 ± 1.2 | 1992.14 ± 1.2 | 943.8 ± 1.2 | 930.2 ± 1.2 | 916.5 ± 1.2
x1 = 0.9004 | 2147.05 ± 1.4 | 2135.43 ± 1.4 | 947.2 ± 1.2 | 933.8 ± 1.2 | 920.3 ± 1.2
x1 = 0.9502 | 2310.37 ± 1.7 | 2298.08 ± 1.7 | 953.1 ± 1.2 | 940.1 ± 1.2 | 927.1 ± 1.2
x1 = 1 | 2491.67 ± 1.8 | 2478.61 ± 1.8 | 961.8 ± 1.2 | 949.2 ± 1.2 | 936.6 ± 1.2
